According to US9783573B2, “IAP antagonists” (BRISTOL-MYERS SQUIBB COMPANY, priority 2012, dated 2017):

Target: N-His-Tb-BIR3 (241-356, XIAP) (Homo sapiens (Human), UniProt P98170)
Assay: biochemical
Type: binding
Conditions: fluoresceinated modified SMAC peptide, fluorescence polarization; read-out: XIAP BIR3 FPA IC50

Question: How did the IC50 turn out when `CN[C@@H](C)C(=O)N[C@H](C(=O)N1Cc2cc(NC(=O)CCC(=O)N[C@H]3C[C@@H](C(=O)N[C@@H]4CCCc5ccccc54)N(C(=O)[C@@H](NC(=O)[C@H](C)NC)C(C)(C)C)C3)ccc2C[C@H]1C(=O)N[C@@H]1CCCc2ccccc21)C(C)(C)C` [Example 1, N^1—((S)-2-((S)-3,3-Dimethyl-2-((S)-2-(methylamino)propanamido)butanoyl)-3-(((R)-1,2,3,4-tetrahydronaphthalen-1-yl)carbamoyl)-1,2,3,4-tetrahydroisoquinolin-7-yl)-N^4-((3S,5S)-1-((S)-3,3-dimethyl-2-((S)-2-(methylamino)propanamido)butanoyl)-5-(((R)-1,2,3,4-tetrahydronaphthalen-1-yl)carbamoyl)pyrrolidin-3-yl)succinamide] was run?
Answer: Its IC50 is 61 nM.

Question: How did the IC50 turn out when `CN[C@@H](C)C(=O)N[C@H](C(=O)N1Cc2cc(N(C(=O)C3(C(N)=O)CC3)[C@H]3C[C@@H](C(=O)N[C@@H]4CCCc5ccccc54)N(C(=O)[C@@H](NC(=O)[C@H](C)NC)C(C)(C)C)C3)ccc2C[C@H]1C(=O)N[C@@H]1CCCc2ccccc21)C(C)(C)C` [Example 4, N-((S)-2-((S)-3,3-Dimethyl-2-((S)-2-(methylamino)propanamido)butanoyl)-3-(((R)-1,2,3,4-tetrahydronaphthalen-1-yl)carbamoyl)-1,2,3,4-tetrahydroisoquinolin-7-yl)-N-((3S,5S)-1-((S)-3,3-dimethyl-2-((S)-2-(methylamino)propanamido)butanoyl)-5-(((R)-1,2,3,4-tetrahydronaphthalen-1-yl)carbamoyl)pyrrolidin-3-yl)cyclopropane-1,1-dicarboxamide] was run?
Answer: The IC50 was 53 nM.

Question: `CN[C@@H](C)C(=O)N[C@H](C(=O)N1Cc2cc(N(C(=O)C3(C(N)=O)CCC3)[C@H]3C[C@@H](C(=O)N[C@@H]4CCCc5ccccc54)N(C(=O)[C@@H](NC(=O)[C@H](C)NC)C(C)(C)C)C3)ccc2C[C@H]1C(=O)N[C@@H]1CCCc2ccccc21)C(C)(C)C` [Example 5, N-((S)-2-((S)-3,3-Dimethyl-2-((S)-2-(methylamino)propanamido)butanoyl)-3-(((R)-1,2,3,4-tetrahydronaphthalen-1-yl)carbamoyl)-1,2,3,4-tetrahydroisoquinolin-7-yl)-N-((3S,5S)-1-((S)-3,3-dimethyl-2-((S)-2-(methylamino)propanamido)butanoyl)-5-(((R)-1,2,3,4-tetrahydronaphthalen-1-yl)carbamoyl)pyrrolidin-3-yl)cyclobutane-1,1-dicarboxamide] was tested. Which IC50 did it give?
Answer: The IC50 was 69 nM.

Question: For `CN[C@@H](C)C(=O)N[C@H](C(=O)N1Cc2cc(NC(=O)C3CC4(C3)CC(C(=O)N[C@H]3C[C@@H](C(=O)N[C@@H]5CCCc6ccccc65)N(C(=O)[C@@H](NC(=O)[C@H](C)NC)C(C)(C)C)C3)C4)ccc2C[C@H]1C(=O)N[C@@H]1CCCc2ccccc21)C(C)(C)C` (stereo partly drawn) [Example 7, N^2-((S)-2-((S)-3,3-Dimethyl-2-((S)-2-(methylamino)propanamido)butanoyl)-3-(((R)-1,2,3,4-tetrahydronaphthalen-1-yl)carbamoyl)-1,2,3,4-tetrahydroisoquinolin-7-yl)-N^6-((3S,5S)-1-((S)-3,3-dimethyl-2-((S)-2-(methylamino)propanamido)butanoyl)-5-(((R)-1,2,3,4-tetrahydronaphthalen-1-yl)carbamoyl)pyrrolidin-3-yl)spiro[3.3]heptane-2,6-dicarboxamide], which IC50 is on record?
Answer: Its IC50 is 83 nM.

Question: With `CN[C@@H](C)C(=O)N[C@H](C(=O)N1Cc2cc(NC(=O)CCc3ccc(C(=O)N[C@H]4C[C@@H](C(=O)N[C@@H]5CCCc6ccccc65)N(C(=O)[C@@H](NC(=O)[C@H](C)NC)C(C)(C)C)C4)cc3)ccc2C[C@H]1C(=O)N[C@@H]1CCCc2ccccc21)C(C)(C)C` [Example 8, (S)-2-((S)-3,3-Dimethyl-2-((S)-2-(methylamino)propanamido)butanoyl)-7-(3-(4-(((3S,5S)-1-((S)-3,3-dimethyl-2-((S)-2-(methylamino)propanamido)butanoyl)-5-(((R)-1,2,3,4-tetrahydronaphthalen-1-yl)carbamoyl)pyrrolidin-3-yl)carbamoyl)phenyl)propanamido)-N-((R)-1,2,3,4-tetrahydronaphthalen-1-yl)-1,2,3,4-tetrahydroisoquinoline-3-carboxamide] as the compound, how does the IC50 read?
Answer: The IC50 was 57 nM.

Question: Which IC50 does the source give for `CN[C@@H](C)C(=O)N[C@H](C(=O)N1Cc2cc(NC(=O)c3ccc(CCC(=O)N[C@H]4C[C@@H](C(=O)N[C@@H]5CCCc6ccccc65)N(C(=O)[C@@H](NC(=O)[C@H](C)NC)C(C)(C)C)C4)cc3)ccc2C[C@H]1C(=O)N[C@@H]1CCCc2ccccc21)C(C)(C)C` [Example 9, (S)-2-((S)-3,3-Dimethyl-2-((S)-2-(methylamino)propanamido)butanoyl)-7-(4-(3-(((3S,5S)-1-((S)-3,3-dimethyl-2-((S)-2-(methylamino)propanamido)butanoyl)-5-(((R)-1,2,3,4-tetrahydronaphthalen-1-yl)carbamoyl)pyrrolidin-3-yl)amino)-3-oxopropyl)benzamido)-N-((R)-1,2,3,4-tetrahydronaphthalen-1-yl)-1,2,3,4-tetrahydroisoquinoline-3-carboxamide] here?
Answer: Its IC50 is 65 nM.

Question: With `CN[C@@H](C)C(=O)N[C@H](C(=O)N1Cc2cc(NC(=O)c3ccc(C(=O)Nc4ccc5c(c4)CN(C(=O)[C@@H](NC(=O)[C@H](C)NC)C(C)(C)C)[C@H](C(=O)N[C@H](C)c4ccccc4F)C5)cc3)ccc2C[C@H]1C(=O)N[C@H](C)c1ccccc1F)C(C)(C)C` [Example 12, N^1,N^4-bis((S)-2-((S)-3,3-Dimethyl-2-((S)-2-(methylamino)propanamido)butanoyl)-3-(((R)-1-(2-fluorophenyl)ethyl)carbamoyl)-1,2,3,4-tetrahydroisoquinolin-7-yl)terephthalamide] as the compound, how does the IC50 read?
Answer: Its IC50 is 130 nM.

Question: How did the IC50 turn out when `CN[C@@H](C)C(=O)N[C@H](C(=O)N1Cc2cc(NC(=O)c3ccc(C(=O)Nc4ccc5c(c4)CN(C(=O)[C@@H](NC(=O)[C@H](C)NC)C(C)(C)C)[C@H](C(=O)N[C@@H](COC)c4ccccc4)C5)cc3)ccc2C[C@H]1C(=O)N[C@@H](COC)c1ccccc1)C(C)(C)C` [Example 14, N^1,N^4-bis((S)-2-((S)-3,3-Dimethyl-2-((S)-2-(methylamino)propanamido)butanoyl)-3-(((R)-2-methoxy-1-phenylethyl)carbamoyl)-1,2,3,4-tetrahydroisoquinolin-7-yl)terephthalamide] was run?
Answer: Its IC50 is 130 nM.

Question: Which IC50 does the source give for `CC[C@H](NC)C(=O)N[C@H](C(=O)N1Cc2cc(NC(=O)c3ccc(C(=O)N[C@H]4C[C@@H](C(=O)N[C@@H]5CCCc6ccccc65)N(C(=O)[C@@H](NC(=O)[C@H](C)NC)C(C)(C)C)C4)cc3)ccc2C[C@H]1C(=O)N[C@@H]1CCCc2ccccc21)C(C)(C)C` [Example 15, N^1-((S)-2-((S)-3,3-Dimethyl-2-((S)-2-(methylamino)butanamido)butanoyl)-3-(((R)-1,2,3,4-tetrahydronaphthalen-1-yl)carbamoyl)-1,2,3,4-tetrahydroisoquinolin-7-yl)-N^4-((3S,5S)-1-((S)-3,3-dimethyl-2-((S)-2-(methylamino)propanamido)butanoyl)-5-(((R)-1,2,3,4-tetrahydronaphthalen-1-yl)carbamoyl)pyrrolidin-3-yl)terephthalamide] here?
Answer: The IC50 was 110 nM.

Question: How did the IC50 turn out when `CN[C@@H](C)C(=O)N[C@H](C(=O)N1Cc2cc(C(=O)Nc3ccc(C(=O)N[C@H]4C[C@@H](C(=O)N[C@@H]5CCCc6ccccc65)N(C(=O)[C@@H](NC(=O)[C@H](C)NC)C(C)(C)C)C4)cc3)ccc2C[C@H]1C(=O)N[C@@H]1CCCc2ccccc21)C(C)(C)C` [Example 27, (S)-2-((S)-3,3-Dimethyl-2-((S)-2-(methylamino)propanamido)butanoyl)-N^7-(4-(((3S,5S)-1-((S)-3,3-dimethyl-2-((S)-2-(methylamino)propanamido)butanoyl)-5-(((R)-1,2,3,4-tetrahydronaphthalen-1-yl)carbamoyl)pyrrolidin-3-yl)carbamoyl)phenyl)-N^3—((R)-1,2,3,4-tetrahydronaphthalen-1-yl)-1,2,3,4-tetrahydroisoquinoline-3,7-dicarboxamide] was run?
Answer: Its IC50 is 73 nM.

Question: For `CN[C@@H](C)C(=O)N[C@H](C(=O)N1Cc2cc(C(=O)NC3(C(=O)N[C@H]4C[C@@H](C(=O)N[C@@H]5CCCc6ccccc65)N(C(=O)[C@@H](NC(=O)[C@H](C)NC)C(C)(C)C)C4)CC3)ccc2C[C@H]1C(=O)N[C@@H]1CCCc2ccccc21)C(C)(C)C` [Example 28, (S)-2-((S)-3,3-Dimethyl-2-((S)-2-(methylamino)propanamido)butanoyl)-N7-(1-(((3S,5S)-1-((S)-3,3-dimethyl-2-((S)-2-(methylamino)propanamido)butanoyl)-5-(((R)-1,2,3,4-tetrahydronaphthalen-1-yl)carbamoyl)pyrrolidin-3-yl)carbamoyl)cyclopropyl)-N3((R)-1,2,3,4-tetrahydronaphthalen-1-yl)-1,2,3,4-tetrahydroisoquinoline-3,7-dicarboxamide], which IC50 is on record?
Answer: Its IC50 is 98 nM.

Same assay, conditions: read-out: XIAP BIR3 FPA IC50

Question: Which IC50 does the source give for `CN[C@@H](C)C(=O)N[C@H](C(=O)N1Cc2cc(NC(=O)C(F)(F)C(F)(F)C(=O)N[C@H]3C[C@@H](C(=O)N[C@@H]4CCCc5ccccc54)N(C(=O)[C@@H](NC(=O)[C@H](C)NC)C(C)(C)C)C3)ccc2C[C@H]1C(=O)N[C@@H]1CCCc2ccccc21)C(C)(C)C` [Example 17, N^1—((S)-2-((S)-3,3-Dimethyl-2-((S)-2-(methylamino)propanamido)butanoyl)-3-(((R)-1,2,3,4-tetrahydronaphthalen-1-yl)carbamoyl)-1,2,3,4-tetrahydroisoquinolin-7-yl)-N^4-((3S,5S)-1-((S)-3,3-dimethyl-2-((S)-2-(methylamino)propanamido)butanoyl)-5-(((R)-1,2,3,4-tetrahydronaphthalen-1-yl)carbamoyl)pyrrolidin-3-yl)-2,2,3,3-tetrafluorosuccinamide] here?
Answer: Its IC50 is 56 nM.
